How the values were obtained:
Assay type in all cases: in vivo
Snapbeans [1] = experiment: Preemergence herbicidal activity, % control of plant growth; conditions: pre-emergence, 504 h, 16 lb/acre, about 3 weeks
How it was run: (§1)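 Application rate 16 lb/acre to soil surface, immediately after seeds were planted and before visible growth; spray solution about 2 percent by weight in acetone and/or alcohol. Visual assessment ~3 weeks later.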

Johnsongrass [2] = experiment: as above; conditions: Sorghum halepense, pre-emergence, 504 h, 16 lb/acre, about 3 weeks
How it was run: as §1

Yellow Rocket [3] = experiment: as above; conditions: pre-emergence, 504 h, 16 lb/acre, about 3 weeks
How it was run: as §1

Crabgrass [4] = experiment: as above; conditions: Digitaria sanguinalis, pre-emergence, 504 h, 16 lb/acre, about 3 weeks
How it was run: as §1

Cucumber [5] = experiment: as above; conditions: Cucumis sativus, pre-emergence, 504 h, 16 lb/acre, about 3 weeks
How it was run: as §1

Alfalfa [6] = experiment: as above; conditions: Medicago sativa, pre-emergence, 504 h, 16 lb/acre, about 3 weeks
How it was run: as §1

Chickweed [7] = experiment: as above; conditions: pre-emergence, 504 h, 16 lb/acre, about 3 weeks
How it was run: as §1

Corn [8] = experiment: as above; conditions: Zea mays, pre-emergence, 504 h, 16 lb/acre, about 3 weeks
How it was run: as §1

Velvetleaf [9] = experiment: as above; conditions: Abutilon theophrasti, pre-emergence, 504 h, 16 lb/acre, about 3 weeks
How it was run: as §1

Barnyard Grass [10] = experiment: as above; conditions: Echinochloa crus-galli, pre-emergence, 504 h; barnyard grass; 16 lb/acre; about 3 weeks
How it was run: as §1

Cheatgrass [11] = experiment: as above; conditions: Bromus tectorum, pre-emergence, 504 h, 16 lb/acre, about 3 weeks
How it was run: as §1

Foxtail [12] = experiment: as above; conditions: Setaria, pre-emergence, 504 h, 16 lb/acre, about 3 weeks
How it was run: as §1

Lambsquarters [13] = experiment: as above; conditions: Chenopodium album, pre-emergence, 504 h, 16 lb/acre, about 3 weeks
How it was run: as §1

Pigweed [14] = experiment: as above; conditions: Amaranthus retroflexus, pre-emergence, 504 h, 16 lb/acre, about 3 weeks
How it was run: as §1

Nutgrass [15] = experiment: as above; conditions: pre-emergence, 504 h, 16 lb/acre, about 3 weeks
How it was run: as §1

Wild Oats [16] = experiment: as above; conditions: Avena fatua, pre-emergence, 504 h, 16 lb/acre, about 3 weeks
How it was run: as §1

Curled Dock [17] = experiment: as above; conditions: pre-emergence, 504 h, 16 lb/acre, about 3 weeks
How it was run: as §1

Snapbeans [18] = experiment: Postemergence herbicidal activity, % control of plant growth; conditions: post-emergence, 264 h, 8 lb/acre, about 11 days
How it was run: (§2)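 Growing plants, together with the soil around them, received a spray of about 2 wt% compound in acetone and/or alcohol at 8 pounds per acre, approximately 2 weeks from seeding. Roughly 11 days on, percent control was assessed by eye.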

Johnsongrass [19] = experiment: as above; conditions: Sorghum halepense, post-emergence, 264 h, 8 lb/acre, about 11 days
How it was run: as §2

Yellow Rocket [20] = experiment: as above; conditions: post-emergence, 264 h, 8 lb/acre, about 11 days
How it was run: as §2

Crabgrass [21] = experiment: as above; conditions: Digitaria sanguinalis, post-emergence, 264 h, 8 lb/acre, about 11 days
How it was run: as §2

Cucumber [22] = experiment: as above; conditions: Cucumis sativus, post-emergence, 264 h, 8 lb/acre, about 11 days
How it was run: as §2

Alfalfa [23] = experiment: as above; conditions: Medicago sativa, post-emergence, 264 h, 8 lb/acre, about 11 days
How it was run: as §2

Chickweed [24] = experiment: as above; conditions: post-emergence, 264 h, 8 lb/acre, about 11 days
How it was run: as §2

Corn [25] = experiment: as above; conditions: Zea mays, post-emergence, 264 h, 8 lb/acre, about 11 days
How it was run: as §2

Velvetleaf [26] = experiment: as above; conditions: Abutilon theophrasti, post-emergence, 264 h, 8 lb/acre, about 11 days
How it was run: as §2

Barnyard Grass [27] = experiment: as above; conditions: Echinochloa crus-galli, post-emergence, 264 h, 8 lb/acre, about 11 days
How it was run: as §2

Cheatgrass [28] = experiment: as above; conditions: Bromus tectorum, post-emergence, 264 h, 8 lb/acre, about 11 days
How it was run: as §2

Foxtail [29] = experiment: as above; conditions: Setaria, post-emergence, 264 h, 8 lb/acre, about 11 days
How it was run: as §2

Lambsquarters [30] = experiment: as above; conditions: Chenopodium album, post-emergence, 264 h, 8 lb/acre, about 11 days
How it was run: as §2

Pigweed [31] = experiment: as above; conditions: Amaranthus retroflexus, post-emergence, 264 h, 8 lb/acre, about 11 days
How it was run: as §2

Nutgrass [32] = experiment: as above; conditions: post-emergence, 264 h, 8 lb/acre, about 11 days
How it was run: as §2

Wild Oats [33] = experiment: as above; conditions: Avena fatua, post-emergence, 264 h, 8 lb/acre, about 11 days
How it was run: as §2

Curled Dock [34] = experiment: as above; conditions: post-emergence, 264 h, 8 lb/acre, about 11 days
How it was run: as §2

Structure (SMILES): CCn1c(=O)[nH]c2cccnc2c1=O [3-ethyl-pyrido[3,2-d]pyrimidine-2,4(1H,3H)-dione]
- pest or weed control at 17933.6 g/ha (Snapbeans [1]): 100%
- pest or weed control at 17933.6 g/ha (Johnsongrass [2]): 60%
- pest or weed control at 17933.6 g/ha (Yellow Rocket [3]): 100%
- pest or weed control at 17933.6 g/ha (Crabgrass [4]): 100%
- pest or weed control at 17933.6 g/ha (Cucumber [5]): 100%
- pest or weed control at 17933.6 g/ha (Alfalfa [6]): 100%
- pest or weed control at 17933.6 g/ha (Chickweed [7]): 100%
- plant injury at 17933.6 g/ha (Corn [8]): 10%
- pest or weed control at 17933.6 g/ha (Velvetleaf [9]): 90%
- pest or weed control at 17933.6 g/ha (Barnyard Grass [10]): 40%
- pest or weed control at 17933.6 g/ha (Cheatgrass [11]): 100%
- pest or weed control at 17933.6 g/ha (Foxtail [12]): 40%
- pest or weed control at 17933.6 g/ha (Lambsquarters [13]): 100%
- pest or weed control at 17933.6 g/ha (Pigweed [14]): 100%
- pest or weed control at 17933.6 g/ha (Nutgrass [15]): 10%
- pest or weed control at 17933.6 g/ha (Wild Oats [16]): 100%
- pest or weed control at 17933.6 g/ha (Curled Dock [17]): 100%
- pest or weed control at 8966.8 g/ha (Snapbeans [18]): 80%
- pest or weed control at 8966.8 g/ha (Johnsongrass [19]): 60%
- pest or weed control at 8966.8 g/ha (Yellow Rocket [20]): 100%
- pest or weed control at 8966.8 g/ha (Crabgrass [21]): 80%
- pest or weed control at 8966.8 g/ha (Cucumber [22]): 50%
- pest or weed control at 8966.8 g/ha (Alfalfa [23]): 50%
- pest or weed control at 8966.8 g/ha (Chickweed [24]): 100%
- plant injury at 8966.8 g/ha (Corn [25]): 10%
- pest or weed control at 8966.8 g/ha (Velvetleaf [26]): 100%
- pest or weed control at 8966.8 g/ha (Barnyard Grass [27]): 10%
- pest or weed control at 8966.8 g/ha (Cheatgrass [28]): 30%
- pest or weed control at 8966.8 g/ha (Foxtail [29]): 40%
- pest or weed control at 8966.8 g/ha (Lambsquarters [30]): 100%
- pest or weed control at 8966.8 g/ha (Pigweed [31]): 90%
- pest or weed control at 8966.8 g/ha (Nutgrass [32]): 10%
- pest or weed control at 8966.8 g/ha (Wild Oats [33]): 0%
- pest or weed control at 8966.8 g/ha (Curled Dock [34]): 90%

Structure (SMILES): CCCn1c(=O)[nH]c2cccnc2c1=O [3-propyl-pyrido[3,2-d]pyrimidine-2,4(1H,3H)-dione]
- pest or weed control at 17933.6 g/ha (Snapbeans [1]): 100%
- pest or weed control at 17933.6 g/ha (Johnsongrass [2]): 100%
- pest or weed control at 17933.6 g/ha (Yellow Rocket [3]): 100%
- pest or weed control at 17933.6 g/ha (Crabgrass [4]): 100%
- pest or weed control at 17933.6 g/ha (Cucumber [5]): 100%
- pest or weed control at 17933.6 g/ha (Alfalfa [6]): 100%
- pest or weed control at 17933.6 g/ha (Chickweed [7]): 100%
- plant injury at 17933.6 g/ha (Corn [8]): 100%
- pest or weed control at 17933.6 g/ha (Velvetleaf [9]): 100%
- pest or weed control at 17933.6 g/ha (Barnyard Grass [10]): 100%
- pest or weed control at 17933.6 g/ha (Cheatgrass [11]): 100%
- pest or weed control at 17933.6 g/ha (Foxtail [12]): 100%
- pest or weed control at 17933.6 g/ha (Lambsquarters [13]): 100%
- pest or weed control at 17933.6 g/ha (Pigweed [14]): 100%
- pest or weed control at 17933.6 g/ha (Nutgrass [15]): 20%
- pest or weed control at 17933.6 g/ha (Wild Oats [16]): 100%
- pest or weed control at 17933.6 g/ha (Curled Dock [17]): 100%
- pest or weed control at 8966.8 g/ha (Snapbeans [18]): 100%
- pest or weed control at 8966.8 g/ha (Johnsongrass [19]): 100%
- pest or weed control at 8966.8 g/ha (Yellow Rocket [20]): 100%
- pest or weed control at 8966.8 g/ha (Crabgrass [21]): 100%
- pest or weed control at 8966.8 g/ha (Cucumber [22]): 100%
- pest or weed control at 8966.8 g/ha (Alfalfa [23]): 100%
- pest or weed control at 8966.8 g/ha (Chickweed [24]): 100%
- plant injury at 8966.8 g/ha (Corn [25]): 60%
- pest or weed control at 8966.8 g/ha (Velvetleaf [26]): 100%
- pest or weed control at 8966.8 g/ha (Barnyard Grass [27]): 100%
- pest or weed control at 8966.8 g/ha (Cheatgrass [28]): 100%
- pest or weed control at 8966.8 g/ha (Foxtail [29]): 100%
- pest or weed control at 8966.8 g/ha (Lambsquarters [30]): 100%
- pest or weed control at 8966.8 g/ha (Pigweed [31]): 100%
- pest or weed control at 8966.8 g/ha (Nutgrass [32]): 70%
- pest or weed control at 8966.8 g/ha (Wild Oats [33]): 90%
- pest or weed control at 8966.8 g/ha (Curled Dock [34]): 100%

Structure (SMILES): CCCCn1c(=O)[nH]c2nccnc2c1=O [Lumazine, 3-butyl]
- pest or weed control at 17933.6 g/ha (Snapbeans [1]): 20%
- pest or weed control at 17933.6 g/ha (Johnsongrass [2]): 0%
- pest or weed control at 17933.6 g/ha (Yellow Rocket [3]): 0%
- pest or weed control at 17933.6 g/ha (Crabgrass [4]): 0%
- pest or weed control at 17933.6 g/ha (Cucumber [5]): 0%
- pest or weed control at 17933.6 g/ha (Alfalfa [6]): 0%
- pest or weed control at 17933.6 g/ha (Chickweed [7]): 90%
- plant injury at 17933.6 g/ha (Corn [8]): 0%
- pest or weed control at 17933.6 g/ha (Velvetleaf [9]): 0%
- pest or weed control at 17933.6 g/ha (Barnyard Grass [10]): 0%
- pest or weed control at 17933.6 g/ha (Cheatgrass [11]): 0%
- pest or weed control at 17933.6 g/ha (Foxtail [12]): 0%
- pest or weed control at 17933.6 g/ha (Lambsquarters [13]): 0%
- pest or weed control at 17933.6 g/ha (Pigweed [14]): 0%
- pest or weed control at 17933.6 g/ha (Nutgrass [15]): 0%
- pest or weed control at 17933.6 g/ha (Wild Oats [16]): 0%
- pest or weed control at 17933.6 g/ha (Curled Dock [17]): 0%
- pest or weed control at 8966.8 g/ha (Snapbeans [18]): 0%
- pest or weed control at 8966.8 g/ha (Johnsongrass [19]): 0%
- pest or weed control at 8966.8 g/ha (Yellow Rocket [20]): 70%
- pest or weed control at 8966.8 g/ha (Crabgrass [21]): 0%
- pest or weed control at 8966.8 g/ha (Cucumber [22]): 0%
- pest or weed control at 8966.8 g/ha (Alfalfa [23]): 0%
- pest or weed control at 8966.8 g/ha (Chickweed [24]): 0%
- plant injury at 8966.8 g/ha (Corn [25]): 0%
- pest or weed control at 8966.8 g/ha (Velvetleaf [26]): 0%
- pest or weed control at 8966.8 g/ha (Barnyard Grass [27]): 0%
- pest or weed control at 8966.8 g/ha (Cheatgrass [28]): 0%
- pest or weed control at 8966.8 g/ha (Foxtail [29]): 0%
- pest or weed control at 8966.8 g/ha (Lambsquarters [30]): 70%
- pest or weed control at 8966.8 g/ha (Pigweed [31]): 0%
- pest or weed control at 8966.8 g/ha (Nutgrass [32]): 0%
- pest or weed control at 8966.8 g/ha (Wild Oats [33]): 0%
- pest or weed control at 8966.8 g/ha (Curled Dock [34]): 0%
